Source: paper PMC8540948, “Design and Synthesis of Newly Synthesized Acrylamide Derivatives as Potential Chemotherapeutic Agents against MCF-7 Breast Cancer Cell Line Lodged on PEGylated Bilosomal Nano-Vesicles for Improving Cytotoxic Activity” (Pharmaceuticals, 2021)

How the values were obtained:
[1] = system: normal breast cell line (MCF-10A); assay: MTT cytotoxicity against normal breast cell line MCF-10A; type: cell-based; conditions: MTT assay
Description: Compounds 2–5d were evaluated for their cytotoxic activities against breast cancer MCF-7 cell line by using an MTT colorimetric assay. Cisplatin was used as reference drug in this study. […] Additionally, the therapeutic safety of N-(3-hydroxy-4-methoxy) aryl amide derivative 4e was determined by screening its cytotoxic activity against normal breast cell line (MCF-10A) using an MTT colorimetric assay.
(§1) Cytotoxic activity of the newly prepared acrylamide derivatives 2–5d were carried out against breast MCF-7 cancer cell line using the MTT assay method. Compound 4e was screened for its effects on normal breast cell line MCF-10A. Cells at density of 1 × 10^4 were seeded in a 96-well plate at 37 °C for 48 h under 5% CO2. After incubation, the cells were treated with different concentrations of the test compounds and incubated for 24 h. After 24 h of drug treatment, 20 μL of MTT solution at 5 mg/mL was applied and incubated for 4 h at 37 °C. Dimethyl sulphoxide (DMSO) in volume of 100 µL was added to each well to dissolve the purple formazan that had formed. The color intensity of the formazan product, which represents the growth condition of the cells, is quantified by using an ELISA plate reader (EXL 800, USA) at 570 nm absorbance. The experimental conditions were carried out with at least three replicates, and the experiments were repeated at least three times.

[2] = system: breast cancer MCF-7 cell line; assay: MTT cytotoxicity against breast cancer MCF-7 cell line; type: cell-based; conditions: MTT assay, 24 h drug treatment
Description: Compounds 2–5d were evaluated for their cytotoxic activities against breast cancer MCF-7 cell line by using an MTT colorimetric assay. Cisplatin was used as reference drug in this study. […] Additionally, the therapeutic safety of N-(3-hydroxy-4-methoxy) aryl amide derivative 4e was determined by screening its cytotoxic activity against normal breast cell line (MCF-10A) using an MTT colorimetric assay. […]
as §1

MCF-7 cells = assay: Cell cycle analysis by DNA flow cytometry; type: cell-based; conditions: MCF-7, 48 h, 4e at IC50 (2.11 μM), PTX 0.1 μM
Description: In order to study the mechanism of the cytotoxic activity of compound 4e, cell cycle analysis was investigated in breast cancer MCF-7 cells by DNA flow cytometry analysis at IC50 dose values of compound 4e for 48 h. Paclitaxel (PTX, 0.1 μM) was used as the reference drug in this study.
MCF-7 cells (2 × 10^5/well) were harvested and washed twice in PBS. After that, the cells were incubated at 37 °C and 5% CO2. The medium was replaced with DMSO 1% v/v containing the tested compound 4e (2.11 μM) and PTX (0.1 μM), then incubated for 48 h, washed twice in PBS, fixed with 70% ethanol, rinsed again with PBS and then stained with DNA fluorochrome PI for 15 min at 37 °C. The samples were analyzed by flow cytometry on a FACS Calibur flow cytometer (Becton and Dickinson, Heidelberg, Germany).

β-tubulin = β-tubulin inhibition percentage by ELISA (tubulin polymerization inhibition); type: biochemical; conditions: 5 μM concentration
tubulin assembly = system: tubulin assembly; design: method as in PMID 25721862; conditions: cited from earlier work

SMILES	melting point [°C]	IC50 ([2]; Homo sapiens, MCF7, 24 h) [µM]	also measured
N.N.[Cl][Pt][Cl] [Cisplatin, reference compound]	–	–	IC50 [1]: 22.62 ± 0.19 µM; IC50 [2]: 1.02 ± 0.12 µM
CCOC(=O)C(=Cc1ccco1)NC(=O)c1cc(OC)c(OC)c(OC)c1 [Compound 2, Ethyl 3-(Furan-2-yl)-2-(3,4,5-trimethoxybenzamido)acrylate]	126 to 128	> 50	–
COc1cc(C(=O)NC(=Cc2ccco2)C(=O)NC(C)C)cc(OC)c1OC [Compound 3, N-[1-(Furan-2-yl)-3-(isopropylamino)-3-oxoprop-1-en-2-yl]-3,4,5-trimethoxybenzamide]	168 to 170	4.73 ± 0.27	–
COc1cc(C(=O)NC(=Cc2ccco2)C(=O)Nc2ccccc2C)cc(OC)c1OC [Compound 4a, N-[1-(Furan-2-yl)-3-oxo-3-(o-tolylamino)prop-1-en-2-yl]-3,4,5-trimethoxybenzamide]	222 to 224	27.3 ± 1.21	–
COc1cc(C(=O)NC(=Cc2ccco2)C(=O)Nc2cccc(C)c2)cc(OC)c1OC [Compound 4b, N-[1-(Furan-2-yl)-3-oxo-3-(m-tolylamino)prop-1-en-2-yl]-3,4,5-trimethoxybenzamide]	217 to 219	10.4 ± 1.09	–
COc1ccc(NC(=O)C(=Cc2ccco2)NC(=O)c2cc(OC)c(OC)c(OC)c2)cc1 [Compound 4c, N-[1-(Furan-2-yl)-3-(4-methoxyphenylamino)-3-oxoprop-1-en-2-yl]-3,4,5-trimethoxybenzamide]	249 to 251	26.2 ± 1.21	–
COc1cc(C(=O)NC(=Cc2ccco2)C(=O)Nc2ccc(O)cc2)cc(OC)c1OC [Compound 4d, N-[1-(Furan-2-yl)-3-(4-hydroxyphenylamino)-3-oxoprop-1-en-2-yl]-3,4,5-trimethoxybenzamide]	214 to 216	18.4 ± 1.14	–
COc1ccc(NC(=O)C(=Cc2ccco2)NC(=O)c2cc(OC)c(OC)c(OC)c2)cc1O [Compound 4e, N-[1-(Furan-2-yl)-3-(3-hydroxy-4-methoxyphenylamino)-3-oxoprop-1-en-2-yl]-3,4,5-trimethoxybenzamide]	–	2.11 ± 0.19	IC50 ([1]; Homo sapiens): 29.3 ± 1.21 µM; percentage of cells in pre-G1 phase (MCF-7 cells; untreated control 1.73%): 24.62%; percentage of cells in G2/M phase (MCF-7 cells; untreated control 8.39%): 42.50%; β-tubulin inhibition percentage (β-tubulin): 89%
COc1cc(C(=O)NC(=Cc2ccco2)C(=O)NCc2cccc(C)c2)cc(OC)c1OC [Compound 5a, N-[1-(Furan-2-yl)-3-((3-methylbenzyl)amino)-3-oxoprop-1-en-2-yl]-3,4,5-trimethoxybenzamide]	175 to 177	3.92 ± 0.21	–
COc1ccccc1CNC(=O)C(=Cc1ccco1)NC(=O)c1cc(OC)c(OC)c(OC)c1 [Compound 5b, N-[1-(Furan-2-yl)-3-((2-methoxybenzyl)amino)-3-oxoprop-1-en-2-yl]-3,4,5-trimethoxybenzamide]	166 to 168	5.03 ± 1.01	–
COc1cccc(CNC(=O)C(=Cc2ccco2)NC(=O)c2cc(OC)c(OC)c(OC)c2)c1 [Compound 5c, N-[1-(Furan-2-yl)-3-(3-methoxybenzylamino)-3-oxoprop-1-en-2-yl]-3,4,5-trimethoxybenzamide]	164 to 166	2.61	IC50 [2]: 3.03 ± 0.39 µM
COc1ccc(CNC(=O)C(=Cc2ccco2)NC(=O)c2cc(OC)c(OC)c(OC)c2)cc1OC [Compound 5d, N-[3-((3,4-Dimethoxybenzyl)amino)-1-(furan-2-yl)-3-oxoprop-1-en-2-yl]-3,4,5-trimethoxybenzamide]	124 to 126	2.61 ± 0.32	–
COc1ccc(C(=O)/C=C/c2cc(C(=O)c3cc(OC)c(OC)c(OC)c3)ccc2OC)cc1N [Compound IV]	–	–	IC50 (tubulin assembly): 0.6 µM
